Results taken from PubChem BioAssay (NCI).
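How tested: cells in 96-well plates exposed to compound for 48 hours at five concentrations. Abbreviation: GI50, concentration required for 50% inhibition of growth. Definition used: TGI = concentration required for complete inhibition of growth.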

Assays:
Experiment in all cases: DTP human tumour cell line panel, 48 h
KM12 colon = system: KM12 colon
DU-145 prostate = system: DU-145 prostate
EKVX NSCLC = system: EKVX NSCLC
K-562 leukemia = system: K-562 leukemia
NCI-H23 lung = system: NCI-H23 lung
SNB-19 CNS = system: SNB-19 CNS
UO-31 renal = system: UO-31 renal
HL-60(TB) leukemia = system: HL-60(TB) leukemia
SW-620 colon = system: SW-620 colon
OVCAR-8 ovarian = system: OVCAR-8 ovarian

Compound	GI50 (KM12 colon) [µM]	TGI (KM12 colon) [µM]	GI50 (DU-145 prostate) [µM]	TGI (DU-145 prostate) [µM]	GI50 (EKVX NSCLC) [µM]	TGI (EKVX NSCLC) [µM]	GI50 (K-562 leukemia) [µM]	TGI (K-562 leukemia) [µM]	GI50 (NCI-H23 lung) [µM]	TGI (NCI-H23 lung) [µM]	GI50 (SNB-19 CNS) [µM]	TGI (SNB-19 CNS) [µM]	GI50 (UO-31 renal) [µM]	TGI (UO-31 renal) [µM]	GI50 (HL-60(TB) leukemia) [µM]	TGI (HL-60(TB) leukemia) [µM]	GI50 (SW-620 colon) [µM]	TGI (SW-620 colon) [µM]	GI50 (OVCAR-8 ovarian) [µM]	TGI (OVCAR-8 ovarian) [µM]
Cc1ccc(NC2=CC(=O)C(=O)c3ccccc32)c(C)c1	2.82	13.1	1.58	2.93	10.3	24.3	4.03	29.4	1.78	4.51	3.88	15	2.19	14.5	2.59	8.06	3.26	12.8	3.32	17
CCOC(=O)n1c2ccccc2c(=O)n1CCO		> 100		> 100		> 100		> 100		> 100		> 100		> 100		> 100		> 100		> 100
O=S(=O)(NCCCNc1nccc(-c2c(-c3cccc(F)c3)nc3occn23)n1)c1cccc2ccccc12	3.8	> 100	6.97	> 100	6.04	> 100	2.87	> 100	14.8	> 100	9.41	> 100	3.25	> 100	4.21	72.2	6.91	> 100	7.02	> 100
Cc1ccc(O)cc1Nc1ccnc2cc(-c3ccccn3)ccc12	3.01	6.57	1.38	8.28	3.61	17.3	0.0973	2.52	3.59	10.9	4.54	18.3	0.246	3.77	4.69	9.53	4.02	7.65	3.61	9.28
N#Cc1cccc(C2C3=C(COC3=O)N(CCO)c3cc4c(cc32)CCC4)c1 (centres undefined)	0.136	> 50	0.191	7.29	0.259	> 50	0.0732	> 50	0.302	> 50	0.18	> 50	0.165	> 31.7	0.132	0.383	0.153	> 50	0.237	> 50
CCc1c(C#N)c(SC(C(N)=O)c2ccccc2)nc(N2CCC(N)CC2)c1C#N (centres undefined)	15.9	31.4	16.9	31.1	15.5	36.9	12.4	28.6	16.4	31	14.9	28.5	> 100	> 100	10.2	25.9	15.5	29.6	15.9	33.7
Cc1cn2c(/C=C3/C(=O)Nc4ccc(C(=O)O)cc43)c(C)nc2s1	> 100	> 100	> 100	> 100	> 100	> 100	> 100	> 100	> 100	> 100	> 100	> 100	> 100	> 100	> 100	> 100	> 100	> 100	> 100	> 100
COc1cc(OC)c(/C=C/C(=O)c2c(N)cc(OC)cc2OC)c(OC)c1	0.303	47.9	0.608	> 100	2.25	> 100	0.305	> 100	0.826	> 100	0.654	> 100	1.36	> 100	0.3	> 100	0.326	> 100	0.712	> 100
Nc1c(C(=O)Nc2ccccn2)sc2nc3c(cc12)CCCCCC3	0.511	> 50	1.18	5.77	4.1	23.3	0.204	38.5	2.25	> 50	1.22	13.8	4.56	22.2	0.14	1.43	0.389	22.7	2.21	15.8
CC(C)c1cc(C(C)C)c(Cl)c(Cl)c1O (tested in a mixture with another compound)		58.1		> 100		53.7		37.9		> 100		42.8		57.7		36		82.1		76.1
CN1CC[C@]23c4c5ccc(O)c4OC2c2[nH]ncc2C[C@H]3[C@H]1C5 (some centres undefined)		> 100		> 100		> 100		> 100		> 100		> 100		> 100		> 100				> 100
CN(c1ccc(NC(=O)NCCN2CCOCC2)cc1)c1ccnc(Nc2ccc(CS(C)(=O)=O)cc2)n1	12.2	> 25	> 25	> 25	> 25	> 25	> 25	> 25	> 25	> 25	> 25	> 25	> 25	> 25	> 25	> 25	> 25	> 25	> 25	> 25
CN(C)c1ccc2c(c1)OC(N)=C(C#N)C2c1ccc2c(c1)CCCN2C (centres undefined)	0.783	> 100	3.51	> 100	3.79	> 100	0.493	> 100	2.83	92.1	4.26	> 100	5.15	78.5	2.81	8.7	0.938	> 100	3.2	27.5
